From US9814696B2, “Use of coumarin derivatives for the preparation of drugs for treating skin diseases” (UNIVERSITE PIERRE ET MARIE CURIE (PARIS 6), priority 2011, dated 2017)
Where two headings read alike, the source gives them in different places.

Experiments:
KLK7 = KLK7 (Homo sapiens, UniProt P49862); assay: KLK7 enzyme inhibition assay, fluorogenic substrate Suc-Leu-Leu-Val-Tyr-AMC; assay type: biochemical; conditions: for IC50: 37° C., 15 min of incubation, pH 8; for selective activity against enzyme: KLK7: Table B, among KLK5, KLK7 and KLK14
Chain of KLK7 (P49862 30-253): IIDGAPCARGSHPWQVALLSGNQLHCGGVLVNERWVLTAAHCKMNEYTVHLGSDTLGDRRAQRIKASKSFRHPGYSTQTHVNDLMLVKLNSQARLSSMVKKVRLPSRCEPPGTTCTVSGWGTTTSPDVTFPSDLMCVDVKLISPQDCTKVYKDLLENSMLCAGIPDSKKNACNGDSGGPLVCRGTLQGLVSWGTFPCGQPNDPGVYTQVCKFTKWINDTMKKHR
Experimental: (§1) Kallikreins KLK5, KLK7 and KLK14 activities were determined by monitoring the hydrolysis of the appropriate fluorogenic substrate (λexc=355, λem=460 nm) for 15 min at 37° C. in the presence of the untreated kallikrein (control) or kallikrein that had been incubated with a test compound. Substrate and compounds were previously dissolved in DMSO, with the final solvent concentration kept constant at 2% (v/v) (KLK 5 and 14), and 4% (v/v) (KLK7). The composition of the activity buffers (pH 8.0) was 100 mM Tris-HCl, 150 mM NaCl, 0.01% (v/v) Tween 20 for the KLK5 assay, and 100 mM Tris-HCl, 1M NaCl, 0.01% (v/v) Tween 20 in the KLK 7 and 14 assays. The final concentrations were 0.6 nM (KLK5) and 100 μM (Boc-Val-Pro-Arg-AMC) (KLK5 assay), 8 nM (KLK7) and 40 μM (Suc-Leu-Leu-Val-Tyr-AMC, AMC: 7-amino-4-methyl-coumarin) (KLK7 assay), and 0.17 nM (KLK14) and 10 μM (Boc-Val-Pro-Arg-AMC) (KLK14 assay). Using the appropriate substrate, the coumarinic compounds (0.01-100 μM) were tested in duplicate for each inhibitor concentration to detect their inhibitory potential. The enzyme and the inhibitors were incubated for 15 min before the determination of the enzyme activity. Initial rates determined in control experiments (V0) were considered to be 100% of the peptidase activity; initial rates below 100% were considered to be inhibitions. The inhibitory activity of compounds was expressed as IC50 (inhibitor concentrations giving 50% inhibition). The values of IC50 were calculated by fitting the experimental data to the equation: % Inhibition=100×(1−Vi/V0)=100[I]0/(IC50+[I]0), or equation: % Inhibition=100[I]0^nH/(IC50^nH+[I]0^nH),nH is the Hill number.
(§2) The tests were realized at 37° C. after 15 min of incubation at pH 8.

KLK5 = target: T1, KLK5 (Homo sapiens, UniProt Q9Y337); assay: KLK5 enzyme inhibition assay, fluorogenic substrate Boc-Val-Pro-Arg-AMC; assay type: biochemical; conditions: 37° C., 15 min of incubation, pH 8
T1 sequence (Q9Y337 23-293): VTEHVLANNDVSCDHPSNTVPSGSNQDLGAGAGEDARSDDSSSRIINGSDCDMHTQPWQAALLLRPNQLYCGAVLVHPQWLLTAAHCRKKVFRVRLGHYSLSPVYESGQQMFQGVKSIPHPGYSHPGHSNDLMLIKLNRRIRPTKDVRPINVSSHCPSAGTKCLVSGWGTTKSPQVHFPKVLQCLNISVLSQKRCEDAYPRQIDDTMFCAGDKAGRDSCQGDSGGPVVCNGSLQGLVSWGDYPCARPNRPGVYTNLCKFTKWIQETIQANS
Experimental: as §1, §2

[1] = test system: normal human keratinocytes; assay: Neutral red uptake (NRU) cytotoxicity test / cell viability; assay type: cell-based; set-up: cytotoxicity, neutral red uptake test (FIG. 5): dose or concentration left out as unconfirmed; conditions: 48 h; for cytotoxicity, neutral red uptake test (FIG. 5) / cytotoxicity, neutral red uptake test: human normal keratinocytes; for cytotoxicity, neutral red uptake test: 1 and 10 μM; for Toxicity, neutral red uptake test: normal human keratinocytes
Description: The NRU cytotoxicity assay procedure is a cell survival/viability chemosensitivity assay based on the ability of viable cells to incorporate and bind neutral red (NR), a supravital dye. NR is a weak cationic dye that readily penetrates cell membranes by non-ionic diffusion and accumulates intracellularly in lysosomes. Alterations of the cell surface or the sensitive lysosomal membrane lead to lysosomal fragility and other changes that gradually become irreversible. Such changes caused by the action of xenobiotics result in a decreased uptake and binding of NR. It is thus possible to distinguish between viable, damaged, or dead cells, which is the basis of this assay. After treatment with the small-molecules inhibitors, NR uptake in cells will be measured by spectrophotometry at 540±10 nm.
Keratinocytes from healthy persons or patients with Netherton syndrome are seeded at the density of 4000 cells in 125 μL of medium per well in 96-well plates.
After seeding, cells are incubated for 48 hours in the following experimental conditions: 37° C.±1° C., 90%±5.0% humidity, and 5%±1% CO2/air. This incubation period allows for cell recovery and adherence and progression to exponential growth phase.
Prepare inhibitors solutions 2-fold more concentrated than desired. Add 125 μL of these solutions to the wells without changing or removing the medium (125 μL).
48 h hours after the beginning of the treatment, carefully remove the medium (containing the tested inhibitor) and rinse the cells very carefully with 250 μL pre-warmed PBS.
Add 250 μL NR medium and incubate (37° C.±1° C., 90%±5% humidity, and 5.0%±1% CO2/air) for 3±0.1 h. NR medium is the culture medium containing 33 μg/mL of NR. After incubation, remove the NR medium, and carefully rinse cells with 250 μL pre-warmed PBS.
Measure the absorption (within 60 minutes after adding NR Desorb solution) of the resulting colored solution at 540 nm±10 nm in a microtiter plate reader (spectrophotometer), using the blank as a reference.
A calculation of cell viability expressed as NRU is made for each concentration of the tested inhibitor by using the mean NRU of the three replicate values per each concentration. This value is compared with the mean NRU of all vehicle values. Relative cell viability is then expressed as percent of untreated vehicle control (DMSO).
Normal human keratinocytes were seeded in a 96-well tissue culture plate. At 20% of confluence, molecules were added in the culture medium and incubated for 48 h. Neutral red medium was added to every well for an incubation period of 3 h, then the dye was extracted with acidified ethanol solution. Data (FIGS. 2 and 3) represent the mean cell viability after treatment +/−SD compared to mean viability of cells treated with the vehicle only (DMSO). Data represent the mean of 5 individual experiments.

KLK14 = target: T2, KLK14 (Homo sapiens, UniProt Q9P0G3); assay: KLK14 enzyme inhibition assay, fluorogenic substrate Boc-Val-Pro-Arg-AMC; assay type: biochemical; conditions: for inhibition at 50 µM / IC50 / inhibition at 100 µM: 37° C., 15 min of incubation, pH 8
T2 sequence (Q9P0G3 25-251): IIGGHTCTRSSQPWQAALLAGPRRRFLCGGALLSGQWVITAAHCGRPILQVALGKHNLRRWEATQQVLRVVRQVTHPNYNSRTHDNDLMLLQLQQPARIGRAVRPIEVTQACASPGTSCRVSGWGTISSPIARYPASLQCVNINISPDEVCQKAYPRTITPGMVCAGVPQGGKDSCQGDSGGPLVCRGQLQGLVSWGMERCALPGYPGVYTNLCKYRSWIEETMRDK
Experimental: as §1, §2

[2] = Table A2, read-out: IC50 (nM) KLK7
[3] = Table A, read-out: IC50 (μM) KLK7
[4] = Table A, read-out: IC50 (μM) KLK14

Q: With `O=C(Oc1ccccc1)c1cc2cc(CBr)ccc2oc1=O` [JFR5, Phenyl 6-bromomethyl-2-oxo-2H-1-benzopyran-3-carboxylate] as the compound, how does the IC50 (KLK7; [2]) read?
A: 249 ± 3.5 nM

Q: What about the inhibition at 50 µM (KLK5) of the same compound?
A: 34%

Q: What about the “cytotoxicity, neutral red uptake test (FIG. 5)” value [1] of the same compound?
A: No noticeable cytotoxicity

Q: What about the inhibition at 50 µM (KLK14) of the same compound?
A: 53%

Q: Which results are given for `O=C(Oc1cccc(F)c1)c1cc2cc(CBr)ccc2oc1=O` [JFR11, 3-Fluorophenyl 6-bromomethyl-2-oxo-2H-1-benzopyran-3-carboxylate]?
A: IC50 (KLK7; [2]): 198 ± 8 nM; inhibition at 50 µM (KLK5): 42%; cytotoxicity, neutral red uptake test (FIG. 5) [1]: No noticeable cytotoxicity; inhibition at 50 µM (KLK14): 48%

Q: How did the IC50 (KLK7; [3]) turn out when `O=C(Oc1cc(F)ccc1F)c1cc2cc(CCl)ccc2oc1=O` [CFL5] was run?
A: 500 ± 40 nM

Q: What about the inhibition at 100 µM (KLK5) of the same compound?
A: 35%

Q: And the “cytotoxicity, neutral red uptake test” value [1]?
A: No noticeable cytotoxicity

Q: And the IC50 (KLK14; [4])?
A: 39 ± 4 µM

Q: How did the IC50 (KLK7; [3]) turn out when `COC(=O)c1cccc(OC(=O)c2cc3cc(CCl)ccc3oc2=O)c1` [IK2] was run?
A: 680 ± 10 nM

Q: And the “selective activity against enzyme: KLK7” value (KLK7)?
A: KLK7

Q: What about the “cytotoxicity, neutral red uptake test” value [1] of the same compound?
A: No noticeable cytotoxicity

Q: And the inhibition at 100 µM (KLK14)?
A: 67%

Q: Which results are given for `O=C(Oc1cccc(Br)c1)c1cc2cc(CBr)ccc2oc1=O` [JFR8, 3-Bromophenyl 6-bromomethyl-2-oxo-2H-1-benzopyran-3-carboxylate]?
A: IC50 (KLK7; [2]): 57 ± 2 nM; selective activity against enzyme: KLK7 (KLK7): KLK7; IC50 (KLK5; Table A2, read-out: IC50 (nM) KLK5): 1470 ± 60 nM; cytotoxicity, neutral red uptake test (FIG. 5) [1]: No noticeable cytotoxicity; IC50 (KLK14; Table A2, read-out: IC50 (nM) KLK14): 3 ± 0.1 µM

Q: With `O=C(Sc1ccccc1)c1cc2cc(CCl)ccc2oc1=O` [LP41] as the compound, how does the IC50 (KLK7; [3]) read?
A: 390 ± 30 nM

Q: What about the inhibition at 100 µM (KLK5) of the same compound?
A: 32%

Q: What about the “cytotoxicity, neutral red uptake test” value [1] of the same compound?
A: No noticeable cytotoxicity

Q: What about the inhibition at 100 µM (KLK14) of the same compound?
A: 67%

Q: Which results are given for `O=C(Oc1cccnc1)c1cc2cc(CCl)ccc2oc1=O` [MFS33]?
A: IC50 (KLK7; [2]): 5.7 ± 0.3 nM; inhibition at 100 µM (KLK5): 62%; cytotoxicity, neutral red uptake test [1]: No noticeable cytotoxicity; inhibition at 100 µM (KLK14): 60%

Q: Which IC50 (KLK7; [3]) does the source give for `NC(=O)c1cccc(OC(=O)c2cc3cc(CCl)ccc3oc2=O)c1` [IK4] here?
A: 7800 ± 600 nM

Q: And the IC50 (KLK5; Table A, read-out: IC50 (μM) KLK5)?
A: 21600 ± 5000 nM

Q: And the “cytotoxicity, neutral red uptake test” value [1]?
A: No noticeable cytotoxicity

Q: And the IC50 (KLK14; [4])?
A: 30 ± 8 µM

Q: Which results are given for `O=C(Oc1ccc(Cl)cc1)c1cc2cc(CCl)ccc2oc1=O` [LP7]?
A: IC50 (KLK7; [3]): 463 ± 7 nM; cytotoxicity, neutral red uptake test [1]: No noticeable cytotoxicity

Q: With `O=C(Oc1cccc(Br)c1)c1cc2cc(CCl)ccc2oc1=O` [LP53] as the compound, how does the IC50 (KLK7; [3]) read?
A: 65 ± 3 nM

Q: And the “selective activity against enzyme: KLK7” value (KLK7)?
A: KLK7

Q: And the inhibition at 50 µM (KLK5)?
A: 34%

Q: And the “cytotoxicity, neutral red uptake test” value [1]?
A: No noticeable cytotoxicity

Q: And the inhibition at 100 µM (KLK14)?
A: 41%

Q: For `COc1cccc(OC(=O)c2cc3cc(CCl)ccc3oc2=O)c1` [LP55], which IC50 (KLK7; [3]) is on record?
A: 8400 ± 200 nM

Q: What about the “selective activity against enzyme: KLK7” value (KLK7) of the same compound?
A: KLK7

Q: What about the “cytotoxicity, neutral red uptake test” value [1] of the same compound?
A: No noticeable cytotoxicity

Q: `COc1cc(Cl)cc(OC(=O)c2cc3cc(CCl)ccc3oc2=O)c1` [LP61] was tested. Which IC50 (KLK7; [3]) did it give?
A: 130 ± 5 nM

Q: What about the “cytotoxicity, neutral red uptake test” value [1] of the same compound?
A: No noticeable cytotoxicity

Q: `O=C(Oc1ccccc1)c1cc2cc(CCl)ccc2oc1=O` [MFS7] was tested. Which IC50 (KLK7; [3]) did it give?
A: 235 ± 9 nM

Q: What about the “selective activity against enzyme: KLK7” value (KLK7) of the same compound?
A: KLK7

Q: What about the inhibition at 50 µM (KLK5) of the same compound?
A: 26%

Q: What about the “cytotoxicity, neutral red uptake test” value [1] of the same compound?
A: No noticeable cytotoxicity

Q: And the inhibition at 100 µM (KLK14)?
A: 45%

Q: What does the source list for `O=C(Oc1cccc(I)c1)c1cc2cc(CCl)ccc2oc1=O` [LP14]?
A: IC50 (KLK7; [3]): 77 ± 3 nM; selective activity against enzyme: KLK7 (KLK7): KLK7; inhibition at 100 µM (KLK5): 48%; cytotoxicity, neutral red uptake test [1]: No noticeable cytotoxicity; inhibition at 100 µM (KLK14): 70%

Q: How did the “Toxicity, neutral red uptake test” value ([1]; 1 μM) turn out when `NC(=O)c1ccccc1OC(=O)c1cc2cc(CCl)ccc2oc1=O` [IK3] was run?
A: 16.09±8.32%

Q: What about the “Toxicity, neutral red uptake test” value ([1]; 10 μM) of the same compound?
A: 47.1±4.43%

Q: What about the inhibition at 100 µM (KLK14) of the same compound?
A: 77%

Q: And the “selective activity against enzyme: KLK14” value (KLK14; Table B, among KLK5, KLK7 and KLK14)?
A: KLK14
